Results taken from patent US12686668B2, “Leukotriene synthesis inhibitors” (Naegis Pharmaceuticals Inc., priority 2019, dated 2026).

Key:
[1] = system: LTC4 production in MC/9 cells; assay: MC/9 HPLC assay, inhibition of LTC4 production; format: cell-based; conditions: Mus musculus; for inhibition at 3 µM: MC9, 3 μM, A23187 stimulated; for inhibition at 1 µM: MC9, Table 2 column 3, no concentration in head (1 μM according to b732), read-out: % Inhibition LTC4
Method: (§1) Cultured MC/9 cells (3×10^6 cells) in 1 mL HBSS were pre-incubated with a series of concentrations of compound solubilized in DMSO for 30 minutes. Production of leukotrienes were stimulated with the addition of 1 μM calcium ionophore (A23187), diluted from a 4 mM DMSO stock in HBSS, and incubated at room temperature for 20 minutes. The reaction was stopped with the addition of 500 μL of methanol containing 20 ng/mL prostaglandin B2 as an internal standard. Samples were collected and stored at −20° C. at least 2 hr or overnight before centrifuged at 13,000 rpm for 15 minutes and loaded onto C18 SEP-PAK columns (Canadian Lifesciences IS12000) for solid phase extraction. The leukotrienes were analyzed by HPLC using an ACE C18 column (4.5 mm×150 mm, 5 m) eluted with acetonitrile/methanol/water mixture with H3PO4, pH 3.5 (37:26:37) with a flow rate of 1.8 mL/min. The amount of LTB4 (Cayman Chemical, 20110) and LTC4 (Cayman Chemical, 20210) were calculated based on reference standards and the level of inhibition of LTB4 production induced by the test compounds was calculated relative to control samples. The results are provided in Table 2, where Compound No. refers to the compounds identified in Table 1.

[2] = target: T1, recombinant human leukotriene A4 hydrolase enzyme (Homo sapiens, UniProt P09960); assay: Amino-peptidase assay, alanine-4-nitroanalide; format: biochemical; conditions: negative values = augmented peptidase activity, read-out: % Inhibition aminopeptidase-Alanine-4-nitroanalide activity of LTA4H (3 μM)
T1 construct: purchased Cayman Chemical 10007817
T1 sequence (P09960 1-611): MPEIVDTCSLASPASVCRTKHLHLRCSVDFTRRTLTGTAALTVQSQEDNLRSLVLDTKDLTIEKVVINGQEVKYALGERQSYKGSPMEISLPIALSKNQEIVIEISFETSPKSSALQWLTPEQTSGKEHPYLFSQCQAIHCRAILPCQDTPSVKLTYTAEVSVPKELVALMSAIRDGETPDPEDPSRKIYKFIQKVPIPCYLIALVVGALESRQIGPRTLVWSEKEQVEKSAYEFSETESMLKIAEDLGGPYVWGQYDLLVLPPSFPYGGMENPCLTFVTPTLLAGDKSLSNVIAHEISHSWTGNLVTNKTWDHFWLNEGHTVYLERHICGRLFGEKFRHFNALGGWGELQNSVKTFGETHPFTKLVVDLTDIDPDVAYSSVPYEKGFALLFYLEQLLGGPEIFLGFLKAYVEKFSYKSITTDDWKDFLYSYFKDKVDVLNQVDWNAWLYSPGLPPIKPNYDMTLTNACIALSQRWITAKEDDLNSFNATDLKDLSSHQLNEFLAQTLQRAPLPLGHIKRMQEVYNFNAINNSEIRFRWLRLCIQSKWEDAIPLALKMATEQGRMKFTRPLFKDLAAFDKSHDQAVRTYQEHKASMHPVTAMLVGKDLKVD
Method: A series of compound concentrations were pre-incubated in the absence of light with 0.5 μg of recombinant human leukotriene A4 hydrolase enzyme (Cayman Chemical 10007817) in 50 μL assay buffer (50 mM Tris-HCl, 100 mM KCl). The reaction was stimulated by adding 50 μL 6 mM alanine-4-nitroanilide (Sigma Aldrich A9325) in assay buffer. The amount of amino-peptidase activity was measured by determining the change in absorbance at 405 nm due to 4-nitroanaline production and comparing the rate of change to a reference standard (Sigma Aldrich 185310). Amino-peptidase activity was compared to control samples and the level of inhibition was calculated. Compounds that augment peptidase activity are represented by negative values.

[3] = system: LTB4 production in MC/9 cells; assay: MC/9 HPLC assay, inhibition of LTB4 production; format: cell-based; conditions: Mus musculus, MC9, Table 2 column 4, no concentration in head (1 μM according to b732), read-out: % Inhibition LTB4
Method: as §1

Row | Structure (SMILES) | inhibition at 3 µM [1] | inhibition at 3 µM [2] | inhibition at 1 µM [1] | inhibition at 1 µM [3]
1 | CSc1cccc2sc(Oc3ccc(C(C)O)cc3)nc12 (stereo not drawn) [Compound 176, 1-(4-{[4-(methylsulfanyl)-1,3-benzothiazol-2-yl]oxy}phenyl)ethanol] | < 10% | < 25% | – | –
2 | COc1cc(CCC(C)(C)O)ccc1Oc1nc2ccccc2s1 [Compound 124, 4-[4-(1,3-benzothiazol-2-yloxy)-3-methoxyphenyl]-2-methylbutan-2-ol] | – | – | 10 to 30% | –
3 | CCC(O)CCc1ccc(Oc2nc3ccccc3s2)c(OC)c1 (stereo not drawn) [Compound 196, 1-[4-(1,3-benzothiazol-2-yloxy)-3-methoxyphenyl]pentan-3-ol] | > 90% | – | – | –
4 | CCOc1cc(CCC(O)(c2ccccc2)C(F)(F)F)ccc1Oc1nc2ccccc2s1 (stereo not drawn) [Compound 130, 4-[3-ethoxy-4-(1,3-benzothiazol-2-yloxy)phenyl]-1,1,1-trifluoro-2-phenylbutan-2-ol] | – | – | < 10% | 10 to 30%
5 | CCNC(c1ccc(Oc2nc3ccccc3s2)cc1)C(F)(F)F (stereo not drawn) [Compound 168, 1-[4-(1,3-benzothiazol-2-yloxy)phenyl]-N-ethyl-2,2,2-trifluoroethanamine] | < 10% | – | – | –
6 | CCC(=O)CCc1ccc(Oc2nc3ccccc3s2)cc1 [Compound 148, 1-[4-(1,3-benzothiazol-2-yloxy)phenyl]pentan-3-one] | – | < 25% | – | –
7 | COc1cc(Oc2nc3ccccc3s2)ccc1C(O)C(F)(F)F (stereo not drawn) [Compound 182, 1-{4-[(1,3-benzothiazol-2-yl}oxy]-2-methoxyphenyl}-2,2,2-trifluoroethan-1-ol] | 10 to 30% | < 25% | – | –
8 | CCC(C)(O)CCc1ccc(Oc2nc3ccccc3s2)cc1 (stereo not drawn) [Compound 143, 1-[4-(1,3-benzothiazol-2-yloxy)phenyl]-3-methylpentan-3-ol] | – | – | 10 to 30% | > 90%
9 | CC(O)(CCc1ccc(Oc2nc3ccccc3s2)cc1)c1ccccc1 (stereo not drawn) [Compound 144, 4-[4-(1,3-benzothiazol-2-yloxy)phenyl]-2-phenylbutan-2-ol] | – | – | 10 to 30% | > 90%
10 | COc1cc(CCC(C)O)ccc1Oc1nc2ccccc2s1 (stereo not drawn) [Compound 122, 4-[4-(1,3-benzothiazol-2-yloxy)-3-methoxyphenyl]-butan-2-ol] | – | – | 30 to 50% | 30 to 50%
11 | Cc1nc2ccc(Oc3ccc(C(C)O)cc3)cc2s1 (stereo not drawn) [Compound 171, 1-{4-[(2-methyl-1,3-benzothiazol-6-yl)oxy]phenyl}ethanol] | 70 to 90% | – | – | –
12 | COc1cc(CCC(C)=O)ccc1Oc1nc2ccccc2s1 [Compound 110, 4-[4-(1,3-benzothiazol-2-yloxy)-3-methoxyphenyl]butan-2-one] | – | – | < 10% | < 10%
13 | COc1cc(CCC(=O)c2ccccc2)ccc1Oc1nc2ccccc2s1 [Compound 131, 3-[4-(1,3-benzothiazol-2-yloxy)-3-methoxyphenyl]-1-phenylpropan-1-one] | 50 to 70% | – | – | –
14 | CCC(O)(CCc1ccc(Oc2nc3ccccc3s2)c(Cl)c1)C(F)(F)F (stereo not drawn) [Compound 151, 1-[4-(1,3-benzothiazol-2-yloxy)-3-chlorophenyl]-3-(trifluoromethyl)pentan-3-ol] | – | – | 10 to 30% | 10 to 30%
15 | CCC(CCc1ccc(Oc2nc3ccccc3s2)c(OC)c1)N1CCOCC1 (stereo not drawn) [Compound 136, 4-{1-[3-methoxy-4-(1,3-benzothiazol-2-yloxy)phenyl]pentan-3-yl}morpholine] | 10 to 30% | – | – | –
16 | COc1cc(CCC(C)(C)O)ccc1Oc1nc2ccccc2o1 [Compound 126, 4-[4-(1,3-benzoxazol-2-yloxy)-3-methoxyphenyl]-2-methylbutan-2-ol] | – | – | < 10% | 10 to 30%

Row | Structure (SMILES) | inhibition at 3 µM [1] | inhibition at 3 µM [2] | inhibition at 1 µM [1] | inhibition at 1 µM [3]
17 | CCC(C)(O)CCc1ccc(Oc2nc3ccccc3o2)c(OC)c1 (stereo not drawn) [Compound 127, 1-[4-(1,3-benzoxazol-2-yloxy)-3-methoxyphenyl]-3-methylpentan-3-ol] | – | – | < 10% | < 10%
18 | CC(=O)c1ccc(Oc2nc3ccccc3s2)cc1 [Compound 159, 1-[4-(1,3-benzothiazol-2-yloxy)phenyl]ethanone] | 10 to 30% | – | – | –
19 | CC(O)(CCc1ccc(Oc2nc3ccccc3s2)c(Cl)c1)C(F)(F)F (stereo not drawn) [Compound 175, 4-[4-(1,3-benzothiazol-2-yloxy)-3-chlorophenyl]-1,1,1-trifluoro-2-methylbutan-2-ol] | – | 50 to 75% | – | –
20 | CCC(N)CCc1ccc(Oc2nc3ccccc3s2)c(OC)c1 (stereo not drawn) [Compound 135, 1-[4-(1,3-benzothiazol-2-yloxy)-3-methoxyphenyl]pentan-3-amine] | – | – | 10 to 30% | 30 to 50%
21 | COc1cc(CCC(c2ccccc2)N2CCCC2)ccc1Oc1nc2ccccc2s1 (stereo not drawn) [Compound 134, 2-{2-methoxyl-4-[3-phenyl-3-(pyrrolidin-1-yl)propyl]phenoxy}-1,3-benzothiazole] | – | – | 10 to 30% | 10 to 30%
22 | CCOc1cc(CCC(=O)CC)ccc1Oc1nc2ccccc2s1 [Compound 120, 1-[4-(1,3-benzothiazol-2-yloxy)-3-ethoxyphenyl]-pentan-3-one] | 70 to 90% | – | – | –
23 | CCC(=O)CCc1ccc(Oc2nc3ccccc3s2)c(OC)c1 [Compound 101, 1-[4-(1,3-benzothiazol-2-yloxy)-3-methoxyphenyl]pentan-3-one] | – | – | < 10% | < 10%
24 | CC(O)(CCc1ccc(Oc2nc3ccccc3s2)cc1)C(F)(F)F (stereo not drawn) [Compound 140, 4-[4-(1,3-benzothiazol-2-yloxy)phenyl]-1,1,1-trifluoro-2-methylbutan-2-ol] | – | – | < 10% | < 10%
25 | CC(=O)CCc1ccc(OCc2ccc3ccccc3n2)cc1 [Compound 189, 4-{4-[(quinolinyl-2-yl)methoxy]phenyl}butan-2-one] | 70 to 90% | – | – | –
26 | COc1cc(CCC(O)(c2ccccc2)C(F)(F)F)ccc1Oc1nc2ccccc2s1 (stereo not drawn) [Compound 133, 3-[4-(1,3-benzothiazol-2-yloxy)-3-methoxyphenyl]-1-(trifluoromethyl)-1-phenylpropan-1-ol] | – | – | < 10% | 30 to 50%
27 | CCC(O)(CCc1ccc(Oc2nc3ccccc3s2)c(OC2CCCC2)c1)C(F)(F)F (stereo not drawn) [Compound 116, 1-[4-(1,3-benzothiazol-2-yloxy)-3-(cyclopentyloxy)-phenyl]-3-(trifluoromethyl)-pentan-3-ol] | – | – | < 10% | < 10%
28 | CC(C)(O)c1ccc(Oc2nc3ccccc3s2)cc1 [Compound 177, 2-[4-(1,3-benzothiazol-2-yloxy)phenyl]propan-2-ol] | – | > 75% | – | –
29 | CCC(C)(O)c1ccc(Oc2nc3ccccc3s2)cc1 (stereo not drawn) [Compound 161, 2-[4-(1,3-benzothiazol-2-yloxy)phenyl]butan-2-ol] | < 10% | – | – | –
30 | CC(c1ccc(Oc2nc3ccccc3s2)cc1)N1CCCC1 (stereo not drawn) [Compound 162, 2-{4-[1-(pyrrolidin-1-yl)ethyl]phenoxy}-1,3-benzothiazole] | < 10% | – | – | –
31 | Cc1nc2ccc(Oc3ccc(C(C)(O)C(F)(F)F)cc3)cc2s1 (stereo not drawn) [Compound 170, 1,1,1-trifluoro-2-{4-[(2-methyl-1,3-benzothiazol-6-yl)oxy]phenyl}propan-2-ol] | > 90% | – | – | –
32 | COc1cc(CCC(C)(O)C(F)(F)F)ccc1Oc1nc2ccccc2s1 (stereo not drawn) [Compound 111, 4-[4-(1,3-benzothiazol-2-yloxy)-3-methoxyphenyl]-1,1,1-trifluoro-2-methylbutan-2-ol] | 70 to 90% | – | – | –
